How the values were obtained:
[1] = tested on: Fusarium oxysporum f.sp. melonis; experiment: Greenhouse pot test: disease severity of melon Fusarium wilt after foliar spraying and root-cut inoculation; type: in vivo; settings: Example 1, FIG. 1: 3% (w/v) glucose + 1% (w/v) organic sulfide, 400-fold dilution, foliar spray at 7 and 14 days of age; 3 weeks after inoculation; untreated control 2.33±0.21; mean ± SE
Procedure: Preparation of the inoculation source of Fusarium oxysporum f.sp. melonis (FOM): the soil-borne pathogen FOM strain used in the example is isolated from diseased melon plants in Wufeng District, Taichung City (24°02′24.6 ″N 120°39′55.0 ″E). The single spores of the strain are independently cultured on potato dextrose agar (PDA; Difco®) medium plates in a 25° C. incubator with 12 hours of light exposure per day. The mycelial pieces of the FOM strain are inoculated into ½ potato dextrose broth (PDB) and incubated in shaking flasks for 14 days. After the incubation, the culture is filtered through a double-layer Miracloth (475855 Calbiochem, Merk Darmstadt, Germany) to obtain a spore suspension with a concentration of 10^5 spores/mL, which is ready to be used in the pathogenic infection of melon root.
At the 24 hours after the final spraying, the root of test melon plants is washed with water to remove the cultivating medium. […] After 3 weeks, the symptoms and severity of wilt disease in melon plants are observed and recorded. […]
The disease severity is calculated by the following formula, wherein si represents the severity of wilt disease; n; represents the number of plants with various severity, and N represents the total number of plants investigated.
Statistical Analysis. The results are analyzed using RStudio v.4.3.0 (R) software. […]

melon's third leaf = experiment: Chlorophyll fluorescence photosynthesis: electron transport rate (ETR) of melon's third leaf after foliar spraying; settings: foliar spray, after 30 minutes of actinic light, mean ± SE, n=5
Procedure: In the following examples, a melon species Cucumis melo var. makuwa cv. Silver Light (Nongyou Seedling Co., Kaohsiung, Taiwan) is used as the test crop. Seeds of the test crop are stirred and rinsed in warm water at 65° C. for 20 minutes, then further stirred and rinsed with sterile water twice, each for 20 minutes, and then placed in a 25° C. incubator for germination for 48 hours. After the radicle has grown, the seedlings are sown in trays containing Sondermischung (perlite high) cultivating medium (Gramoflor, Germany). When the leaves are fully expanded, the seedlings are transplanted into 3.5-inch plastic pots (inner diameter: 9 cm) and continue planting. The melon plants are ready for following experiments when their first real leaves are fully expanded (the plant is about 7 days of age).
The compositions of 3% (w/v) glucose amended with 1% (w/v) an organic sulfide selected from allicin, dimethyl disulfide (DMDS), lipoic acid, methionine and taurine, with two hundred-fold and four hundred-fold dilution in water, are sprayed on the leaves of the melon seedlings, and the chlorophyll fluorescence photosynthesis of the third real leaf is investigated during the growing period of melons. […] The third real leaf of melon is clipped to measure the leaf chlorophyll fluorescence parameters. […]

Row | Compound | Disease severity of melon Fusarium wilt (scale 0-4) [1] | ETR (electron transport rate of PSII on third leaf of melon) (melon's third leaf; 200X dilution of 1% (w/v) organic sulfide with 3% (w/v) glucose) | ETR (electron transport rate of PSII on third leaf of melon) (melon's third leaf; 400X dilution of 1% (w/v) organic sulfide with 3% (w/v) glucose)
1 | CSSC [DMDS, dimethyl disulfide] | 1.83±0.25 | 110.24 ± 2.72 μmol electrons m^−2 s^−1 | 117.68 ± 3.83 μmol electrons m^−2 s^−1
2 | NCCS(=O)(=O)O [Taurine, 2-aminoethanesulfonic acid] | 2.00±0.18 | – | –

Reference: patent publication US20250386824A1, “COMPOSITION OF AN ORGANIC SULFIDE COMBINED WITH GLUCOSE AND USE THEREOF IN CONTROLLING MELON FUSARIUM WILT” (CH BIOTECH R&D CO., LTD., priority 2024, published 2025)
